# Species on record: Rattus norvegicus
# Assay: DrugMatrix - Regimen: Daily Repeat
# Assay type: toxicity, organism-based, Sprague-Dawley
# Set-up: regimen Daily Repeat, gender Male, age 6-8 weeks
# Conditions: in vivo, po, route oral GAVAGE, vehicle 100 % WATER; for ABSOLUTE BASOPHIL / ABSOLUTE EOSINOPHIL / ABSOLUTE LYMPHOCYTE / ABSOLUTE MONOCYTE / ABSOLUTE SEGMENTED NEUTROPHIL / BASOPHIL / EOSINOPHIL / ERYTHROCYTE COUNT / HEMATOCRIT / HEMOGLOBIN / LEUKOCYTE COUNT / LYMPHOCYTE / MEAN CORPUSCULAR HEMOGLOBIN / MEAN CORPUSCULAR HEMOGLOBIN CONCENTRATION / MEAN CORPUSCULAR VOLUME / MONOCYTE / NEUTROPHIL / NUCLEATED RED BLOOD CELLS / PLATELET COUNT: tissue Blood; for ALANINE AMINOTRANSFERASE / ALBUMIN / ALKALINE PHOSPHATASE / ASPARTATE AMINOTRANSFERASE / BLOOD UREA NITROGEN / CARBON DIOXIDE / CHLORIDE / CHOLESTEROL / CREATINE PHOSPHOKINASE / CREATININE / GLUCOSE / LACTATE DEHYDROGENASE / LIPASE / PHOSPHORUS / POTASSIUM / SODIUM / TOTAL BILIRUBIN / TOTAL PROTEIN / URIC ACID: tissue Plasma
# [1] = 0 mg/kg, 72 h, dose level Control, time 3 day
# [2] = 0 mg/kg, 120 h, dose level Control, time 5 day
# [3] = 28 mg/kg, 72 h, dose level Low, time 3 day
smiles,measurement,setting,value
Cn1cc[nH]c1=S [METHIMAZOLE],ABSOLUTE BASOPHIL,[1],0 CELLS/uL
same,ABSOLUTE EOSINOPHIL,[1],0 CELLS/uL
same,ABSOLUTE LYMPHOCYTE,[1],8482.5 CELLS/uL
same,ABSOLUTE MONOCYTE,[1],63.83 CELLS/uL
same,ABSOLUTE SEGMENTED NEUTROPHIL,[1],887 CELLS/uL
same,BASOPHIL,[1],0%
same,EOSINOPHIL,[1],0%
same,ERYTHROCYTE COUNT,[1],5.49 x10E6/uL
same,HEMATOCRIT,[1],34.5%
same,HEMOGLOBIN,[1],13.33 G/DL
same,LEUKOCYTE COUNT,[1],9.43 x10E3/uL
same,LYMPHOCYTE,[1],90.17%
same,MEAN CORPUSCULAR HEMOGLOBIN,[1],24.3 pg
same,MEAN CORPUSCULAR HEMOGLOBIN CONCENTRATION,[1],38.63 G/DL
same,MEAN CORPUSCULAR VOLUME,[1],62.88 fL
same,MONOCYTE,[1],0.67%
same,NEUTROPHIL,[1],9.17%
same,NUCLEATED RED BLOOD CELLS,[1],0.67 /100WBC
same,PLATELET COUNT,[1],1022.83 x10E3/uL
same,ALANINE AMINOTRANSFERASE,[1],50.5 u/L
same,ALBUMIN,[1],4.08 G/DL
same,ALKALINE PHOSPHATASE,[1],368.33 u/L
same,ASPARTATE AMINOTRANSFERASE,[1],87.5 u/L
same,BLOOD UREA NITROGEN,[1],12.83 mg/dL
same,CARBON DIOXIDE,[1],32.83 mmol/L
same,CHLORIDE,[1],99.67 MEQ/L
same,CHOLESTEROL,[1],79.67 mg/dL
same,CREATINE PHOSPHOKINASE,[1],585 u/L
same,CREATININE,[1],0.22 mg/dL
same,GLUCOSE,[1],135.67 mg/dL
same,LACTATE DEHYDROGENASE,[1],171 u/L
same,LIPASE,[1],9.5 u/L
same,PHOSPHORUS,[1],11.18 mg/dL
same,POTASSIUM,[1],6.25 MEQ/L
same,SODIUM,[1],144.87 MEQ/L
same,TOTAL BILIRUBIN,[1],0.2 mg/dL
same,TOTAL PROTEIN,[1],6.08 G/DL
same,URIC ACID,[1],0.65 mg/dL
same,ABSOLUTE BASOPHIL,[2],0 CELLS/uL
same,ABSOLUTE EOSINOPHIL,[2],14.5 CELLS/uL
same,ABSOLUTE LYMPHOCYTE,[2],7596.17 CELLS/uL
same,ABSOLUTE MONOCYTE,[2],69.67 CELLS/uL
same,ABSOLUTE SEGMENTED NEUTROPHIL,[2],503 CELLS/uL
same,BASOPHIL,[2],0%
same,EOSINOPHIL,[2],0.17%
same,ERYTHROCYTE COUNT,[2],5.49 x10E6/uL
same,HEMATOCRIT,[2],34.72%
same,HEMOGLOBIN,[2],13.47 G/DL
same,LEUKOCYTE COUNT,[2],8.18 x10E3/uL
same,LYMPHOCYTE,[2],92.17%
same,MEAN CORPUSCULAR HEMOGLOBIN,[2],24.57 pg
same,MEAN CORPUSCULAR HEMOGLOBIN CONCENTRATION,[2],38.82 G/DL
same,MEAN CORPUSCULAR VOLUME,[2],63.3 fL
same,MONOCYTE,[2],1%
same,NEUTROPHIL,[2],6.67%
same,NUCLEATED RED BLOOD CELLS,[2],0 /100WBC
same,PLATELET COUNT,[2],1141 x10E3/uL
same,ALANINE AMINOTRANSFERASE,[2],48.33 u/L
same,ALBUMIN,[2],4.07 G/DL
same,ALKALINE PHOSPHATASE,[2],395.67 u/L
same,ASPARTATE AMINOTRANSFERASE,[2],85.67 u/L
same,BLOOD UREA NITROGEN,[2],15.83 mg/dL
same,CARBON DIOXIDE,[2],31.33 mmol/L
same,CHLORIDE,[2],100.83 MEQ/L
same,CHOLESTEROL,[2],62.33 mg/dL
same,CREATINE PHOSPHOKINASE,[2],248.33 u/L
same,CREATININE,[2],0.2 mg/dL
same,GLUCOSE,[2],135.67 mg/dL
same,LACTATE DEHYDROGENASE,[2],141.33 u/L
same,LIPASE,[2],9.5 u/L
same,PHOSPHORUS,[2],10.73 mg/dL
same,POTASSIUM,[2],6.07 MEQ/L
same,SODIUM,[2],145.35 MEQ/L
same,TOTAL BILIRUBIN,[2],0.22 mg/dL
same,TOTAL PROTEIN,[2],6.12 G/DL
same,URIC ACID,[2],0.63 mg/dL
same,ABSOLUTE BASOPHIL,[3],0 CELLS/uL
same,ABSOLUTE EOSINOPHIL,[3],0 CELLS/uL
same,ABSOLUTE LYMPHOCYTE,[3],8790 CELLS/uL
same,ABSOLUTE MONOCYTE,[3],67.33 CELLS/uL
same,ABSOLUTE SEGMENTED NEUTROPHIL,[3],776 CELLS/uL
same,BASOPHIL,[3],0%
same,EOSINOPHIL,[3],0%
same,ERYTHROCYTE COUNT,[3],5.45 x10E6/uL
same,HEMATOCRIT,[3],33.93%
same,HEMOGLOBIN,[3],13.23 G/DL
same,LEUKOCYTE COUNT,[3],9.63 x10E3/uL
same,LYMPHOCYTE,[3],91.33%
same,MEAN CORPUSCULAR HEMOGLOBIN,[3],24.3 pg
same,MEAN CORPUSCULAR HEMOGLOBIN CONCENTRATION,[3],39 G/DL
same,MEAN CORPUSCULAR VOLUME,[3],62.37 fL
same,MONOCYTE,[3],0.67%
same,NEUTROPHIL,[3],8%
same,NUCLEATED RED BLOOD CELLS,[3],0.33 /100WBC
same,PLATELET COUNT,[3],926 x10E3/uL
same,ALANINE AMINOTRANSFERASE,[3],53.33 u/L
same,ALBUMIN,[3],4.17 G/DL
same,ALKALINE PHOSPHATASE,[3],410.67 u/L
same,ASPARTATE AMINOTRANSFERASE,[3],78 u/L
same,BLOOD UREA NITROGEN,[3],11.33 mg/dL
same,CARBON DIOXIDE,[3],33 mmol/L
same,CHLORIDE,[3],98.67 MEQ/L
same,CHOLESTEROL,[3],91.33 mg/dL
same,CREATINE PHOSPHOKINASE,[3],269.33 u/L
same,CREATININE,[3],0.34 mg/dL
same,GLUCOSE,[3],123 mg/dL
same,LACTATE DEHYDROGENASE,[3],147.67 u/L
same,LIPASE,[3],11 u/L
same,PHOSPHORUS,[3],10.97 mg/dL
same,POTASSIUM,[3],6.8 MEQ/L
same,SODIUM,[3],143.6 MEQ/L
same,TOTAL BILIRUBIN,[3],0.23 mg/dL
same,TOTAL PROTEIN,[3],6.13 G/DL
same,URIC ACID,[3],0.8 mg/dL

# Reference: ChEMBL document CHEMBL3885881, “DrugMatrix”
